From publication PMC7672424 (Nucleic Acids Research, 2020)

How the values were obtained:
[1] = system: FAM-TTA45-TAMRA (DNA, G4) GGGTTAGGGTTAGGGTTAGGGTTAGGGTTAGGGTTAGGGTTAGGG; assay: FRET melting; details: 100 mM K+ (KCl) plus 10 mM potassium phosphate, pH 7.0, 0.5 µM DNA
[2] = system: TTA; details: CD melting; 5 µM DNA, 20 µM compound; 10 mM Tris-HCl, 50 mM KCl, pH 7.4
Procedure: CD studies were performed on a Chirascan circular dichroism spectrophotometer (Jasco, Easton, MD, USA). A quartz cuvette with a 1 mm path length was used to record the spectra over a wavelength range of 220–320 nm with a 1 nm bandwidth. All the samples were prepared in buffer containing 10 mM Tris–HCl pH 7.4, 100 mM KCl. To ensure the concentrations of G-quadruplex units to be 20 μM, multiple G-quadruplexes forming oligonucleotides with different concentrations were used (TTA (G1) 20 μM, TTA45 (G2) 10 μM, TTA69 (G3) 6.67 μM, TTA93 (G4) 5 μM, TTA117 (G5) 4 μM, TTA141 (G6) 3.33 μM). The DNA samples were heated at 95°C for 5 min and cooled down slowly to room temperature. […] Melting curves were measured at 295 nm and the range of temperature was 4–95°C.
a Melting temperature (T ) of 5 µM DNA samples with and without 20 µM BMPQ-1 analogs in 10 mM Tris-HCl
buffer (50 mM KCl, pH 7.4) was determined by circular dichroism spectroscopy, and ΔTm/°C were derived by

[3] = system: A549; assay: Cell cytotoxicity assay (CCK8); assay type: cell-based, human; details: CCK8, 48 h treatment
Procedure: (§1) The cell growth effect of BMPQ-1 against different cell lines were tested via measuring the quantity of living cells using the Cell Counting Kit-8 (CCK8) (DOJINDO, Japan) according to the instruction. Cells were seeded in a 96-well plate (5 × 10^3 cells/well) and grown for 24 h for attachment. Then the cells were treated with various concentrations of BMPQ-1 and incubated at 37°C with 5% CO2 for 48 h. After incubation, the old medium was discarded followed by adding fresh medium containing 10% FBS in DMEM. Then 100 μl CCK-8 (10% in grow medium) was added into each well, and the cells were further incubated for 1 h. The optical density (OD) was detected at 450 nm by an automated microplate reader (Bio-Rad). The IC50 values were derived from the curves of the mean percentage of survival against the drug concentration. All the experiments were performed in triplicate.
(§2) A Cell Counting Kit-8 (CCK8) (DOJINDO, Japan) was employed to evaluate the cytotoxicity of BMPQ-1 on human alveolar basal epithelial cancer cell line (A549), human hepatocellular carcinoma cancer cell line (HepG2), human gastric cancer cell line (MGC-803), human colon adenocarcinoma (HT29), human normal liver Cells (HL-7702).

[4] = system: TTA45; assay: CD melting, DNA stabilization; assay type: binding, human; details: 5 µM DNA, 20 µM compound, 10 mM Tris-HCl, 50 mM KCl, pH 7.4
Text: Compounds Structures IC /µM m

[5] = system: TTA (DNA, G4) GGGTTAGGGTTAGGGTTAGGG; assay: CD melting; details: 50 mM K+; 10 mM Tris-HCl pH 7.4; 5 µM DNA, 20 µM compound
[6] = system: TTA45 (DNA, G4) GGGTTAGGGTTAGGGTTAGGGTTAGGGTTAGGGTTAGGGTTAGGG; assay: CD melting; details: 50 mM K+; 10 mM Tris-HCl pH 7.4; 5 µM DNA, 20 µM compound
[7] = system: TTA45; assay: FRET melting assay, stabilization of TTA45; assay type: binding, human; details: for ΔTm/°C, TTA45 stabilization by FRET (Table S3) / ΔTm/°C, stabilization of TTA45 by FRET (Table S2): 0.5 µM TTA45, 10 mM K2HPO4/KH2PO4, 100 mM KCl, pH 7.0; for ΔTm/°C, TTA45 stabilization by FRET (Table S3): 20 µM compounds; for stabilization of TTA45 (in words, SAR): FRET assay
Procedure: Based on the conventional G-quadruplex ligand design ([46]), ∼400 compounds were selected from Chinese National Compound library of Peking University (PKU-CNCL). These compounds were evaluated for their ability to bind to TTA45 by Fluorescence Resonance Energy Transfer (FRET) assay (Supplementary Tables S1 and S2) ([47]). […] Compounds 21-38 were purchased to study their binding with TTA45 by FRET (Supplementary Table S3). […] page 4: Table S2. Stabilization of TTA45 as determined by FRET assays (continued). Compounds Structures ΔTm/°C Compounds Structures ΔTm/°C 23 10.3 25 14.6 […] OH 24 […] KCl, pH 7.0) was determined by FRET procedure, and Tm/°C were derived by their difference. The concentration of compounds 21-26 were 20 μM , and other compounds were 50 μM. FRET assay was carried out on the Real-Time PCR 3.2 machine (Analytik Jena, Germany). The total reaction volume was 20 μL with 0.5 μM of oligonucleotide labelled with FAM at the 3' end and TAMRA at 5' end in 10 mM K2HPO4/KH2PO4 (pH 7.0) containing 100 mM KCl. […] Then compounds with various concentrations were added into the DNA samples.

[8] = system: TTA45 (DNA, G4) GGGTTAGGGTTAGGGTTAGGGTTAGGGTTAGGGTTAGGGTTAGGG; assay: CD melting; details: 50 mM K+ (KCl); 10 mM Tris-HCl pH 7.4; 20 µM compound, 5 µM DNA
[9] = system: TTA (DNA, G4) GGGTTAGGGTTAGGGTTAGGG; assay: CD melting; details: 50 mM K+ (KCl); 10 mM Tris-HCl pH 7.4; 20 µM compound, 5 µM DNA
[10] = system: FAM-TTA45-TAMRA (DNA, G4) GGGTTAGGGTTAGGGTTAGGGTTAGGGTTAGGGTTAGGGTTAGGG; assay: FRET melting; details: 100 mM K+ (KCl) plus potassium phosphate; 10 mM K2HPO4/KH2PO4 pH 7.0; 0.5 µM DNA, 20 µM compound
[11] = system: HepG2; assay: Cell cytotoxicity assay (CCK8); assay type: cell-based, human; details: CCK8, 48 h treatment
Procedure: as §1, §2

[12] = system: MGC-803; assay: Cell cytotoxicity assay (CCK8); assay type: cell-based, human; details: CCK8, 48 h treatment
Procedure: as §1, §2

[13] = system: HT29; assay: Cell cytotoxicity assay (CCK8); assay type: cell-based, human; details: CCK8, 48 h treatment
Procedure: as §1, §2

Clc1ccc(-n2cc3c(-c4ccccc4)nnc-3c3ccccc32)cc1
ΔTm ([1]; 20 µM compound): 2.54 ± 0.16 °C

COc1ccc(-c2nnc3c4cc5c(cc4n(Cc4ccccc4)cc2-3)OCO5)cc1 [BMPQ-6]
ΔTm (°C) TTA [2]: 1.0 °C
ΔTm ([1]; 20 µM compound): 11.68 ± 0.53 °C
IC50 [3]: 2.49 ± 0.03 µM
ΔTm (°C) TTA45 [4]: 3.5 °C
ΔTm [5]: 1.0 °C
ΔTm [6]: 3.5 °C
ΔTm/°C, TTA45 stabilization by FRET (Table S3) [7]: 11.68 ± 0.53 °C
ΔTm/°C, stabilization of TTA45 by FRET (Table S2) ([7]; compounds 21-26 20 µM): 11.7 °C

CCOc1ccc2c(c1)c1nnc(-c3ccccc3)c-1cn2-c1ccc(Cl)cc1
ΔTm ([1]; 20 µM compound): 0.98 ± 0.69 °C

Cc1ccc2c(c1)c1nnc(-c3ccc(F)cc3)c-1cn2Cc1ccccc1
ΔTm ([1]; 20 µM compound): 6.43 ± 0.70 °C

CCC(Sc1nc2cc3c(cc2c(=O)n1Cc1ccc(C(=O)NCc2ccc4c(c2)OCO4)cc1)OCO3)C(=O)N1CCOCC1 (centres unmarked) [Compound 12]
ΔTm ([1]; 50 µM compound): 5.11 °C
ΔTm/°C, stabilization of TTA45 by FRET (Table S2) ([7]; compounds 50 µM): 5.11 °C

COc1ccc(-c2nnc3c4cc5c(cc4n(Cc4ccccc4)cc2-3)OCCO5)cc1OC [BMPQ-5]
ΔTm (°C) TTA [2]: 4.3 °C
ΔTm [8]: 4.6 °C
ΔTm [9]: 4.3 °C
IC50 [3]: 5.39 ± 0.46 µM
ΔTm (°C) TTA45 [4]: 4.6 °C
ΔTm [10]: 14.62 ± 0.46 °C
ΔTm/°C, TTA45 stabilization by FRET (Table S3) [7]: 14.62 ± 0.46 °C
ΔTm/°C, stabilization of TTA45 by FRET (Table S2) ([7]; compounds 21-26 20 µM): 14.6 °C

COc1ccc(Cn2cc3c(-c4ccc5c(c4)OCO5)nnc-3c3cc4c(cc32)OCO4)cc1OC [Compound 31]
ΔTm ([1]; 20 µM compound): 15.15 ± 0.23 °C
ΔTm/°C, TTA45 stabilization by FRET (Table S3) [7]: 15.15 ± 0.23 °C

COc1ccc2c(c1)c1nnc(-c3ccc(F)cc3)c-1cn2Cc1ccccc1
ΔTm ([1]; 20 µM compound): 8.38 ± 1.73 °C

CN(Cc1ccc2c(c1)OCO2)C(=O)c1nn(C)c2c1CN(C(=O)C1=NOC(c3cccs3)C1)CC2 (centres unmarked)
ΔTm ([1]; 50 µM compound): 0.70 °C

OCCn1cc2c(-c3ccc4c(c3)OCO4)nnc-2c2cc3c(cc21)OCO3 [BMPQ-4]
ΔTm (°C) TTA [2]: 2.3 °C
ΔTm [8]: 4.9 °C
ΔTm [9]: 2.3 °C
ΔTm ([1]; 20 µM compound): 7.92 ± 0.12 °C
IC50 [3]: > 32 µM
ΔTm (°C) TTA45 [4]: 4.9 °C
ΔTm/°C, TTA45 stabilization by FRET (Table S3) [7]: 7.92 ± 0.12 °C
ΔTm/°C, stabilization of TTA45 by FRET (Table S2) ([7]; compounds 21-26 20 µM): 7.9 °C

CN1CCN(CCCSc2nnc3c(n2)[nH]c2ccccc23)CC1 [Compound 3]
ΔTm ([1]; 50 µM compound): 9.04 °C
ΔTm/°C, stabilization of TTA45 by FRET (Table S2) ([7]; compounds 50 µM): 9.04 °C

CN(C)c1ccc(Nc2c3ccc(NC(=O)CCN4CCCC4)cc3nc3cc(NC(=O)CCN4CCCC4)ccc23)cc1 [BRACO-19, reference compound]
IC50 [3]: 6.71 ± 0.45 µM
IC50 [11]: 6.25 ± 0.8 µM
IC50 [12]: 7.07 ± 0.89 µM
IC50 [13]: 14.2 ± 1.78 µM

Fc1ccc(-n2nc(-c3ccccc3)c3cnc4cc5c(cc4c32)OCO5)cc1 [Compound 38]
ΔTm/°C, TTA45 stabilization by FRET (Table S3) [7]: 0.30 ± 0.82 °C
stabilization of TTA45 (in words, SAR) [7]: negligible stabilization

Fc1ccc(-c2nnc3c4cc5c(cc4n(Cc4ccccc4F)cc2-3)OCCO5)cc1 [Compound 33]
ΔTm ([1]; 20 µM compound): 10.42 ± 1.60 °C
ΔTm/°C, TTA45 stabilization by FRET (Table S3) [7]: 10.42 ± 1.60 °C

COc1ccc(-c2nn(-c3ccc(F)cc3)c3c2cnc2cc4c(cc23)OCO4)cc1 [Compound 37]
ΔTm/°C, TTA45 stabilization by FRET (Table S3) [7]: 2.19 ± 0.91 °C
stabilization of TTA45 (in words, SAR) [7]: negligible stabilization

Cc1cc(C)n(-c2nnc3c4ccccc4n(CC(=O)NCCc4nc5ccccc5[nH]4)c3n2)n1
ΔTm ([1]; 50 µM compound): 2.17 °C

Oc1ccccc1C=NNc1nnc2c3ccccc3n(Cc3ccccc3)c2n1 [Compound 5]
ΔTm/°C, stabilization of TTA45 by FRET (Table S2) ([7]; compounds 50 µM): 1.53 °C

COc1cccc(Cn2cc3c(-c4ccc5c(c4)OCO5)nnc-3c3cc4c(cc32)OCO4)c1 [Compound 30]
ΔTm ([1]; 20 µM compound): 13.40 ± 1.12 °C
ΔTm/°C, TTA45 stabilization by FRET (Table S3) [7]: 13.40 ± 1.12 °C

CCOc1ccc(-c2nnc3c4cc5c(cc4[nH]cc2-3)OCCO5)cc1 [Compound 34]
ΔTm/°C, TTA45 stabilization by FRET (Table S3) [7]: 3.55 ± 1.20 °C

Cc1ccc(-c2nnc3c4cc5c(cc4n(Cc4ccccc4)cc2-3)OCO5)cc1C [Compound 27]
ΔTm ([1]; 20 µM compound): 14.08 ± 2.11 °C
ΔTm/°C, TTA45 stabilization by FRET (Table S3) [7]: 14.08 ± 2.11 °C

Oc1ccccc1/C=N/Nc1nnc2c3ccccc3n(Cc3ccccc3)c2n1
ΔTm ([1]; 50 µM compound): 1.53 °C

Cc1ccc(Cn2cc3c(-c4ccc5c(c4)OCO5)nnc-3c3ccccc32)cc1 [BMPQ-3]
ΔTm (°C) TTA [2]: 1.1 °C
ΔTm [8]: 5.1 °C
ΔTm [9]: 1.1 °C
ΔTm ([1]; 20 µM compound): 10.28 ± 0.15 °C
IC50 [3]: > 32 µM
ΔTm (°C) TTA45 [4]: 5.1 °C
ΔTm/°C, TTA45 stabilization by FRET (Table S3) [7]: 10.28 ± 0.15 °C
ΔTm/°C, stabilization of TTA45 by FRET (Table S2) ([7]; compounds 21-26 20 µM): 10.3 °C

c1cc2c(cc1Cn1cc3c(-c4ccc5c(c4)OCO5)nnc-3c3cc4c(cc31)OCO4)OCO2
ΔTm ([1]; 20 µM compound): 11.56 ± 0.36 °C

COc1cc2c(-c3ccccc3[N+](=O)[O-])nc3c(c(-c4ccccc4)nn3-c3ccccc3)c2cc1OC
ΔTm ([1]; 50 µM compound): 3.85 °C

FC(F)(F)c1ccc(Cn2cc3c(-c4ccc5c(c4)OCO5)nnc-3c3cc4c(cc32)OCO4)cc1 [BMPQ-2]
ΔTm (°C) TTA [2]: 2.3 °C
ΔTm ([1]; 20 µM compound): 12.59 ± 0.54 °C
IC50 [3]: 1.99 ± 0.04 µM
ΔTm (°C) TTA45 [4]: 7.0 °C
ΔTm [5]: 2.3 °C
ΔTm [6]: 7.0 °C
ΔTm/°C, TTA45 stabilization by FRET (Table S3) [7]: 12.59 ± 0.54 °C
ΔTm/°C, stabilization of TTA45 by FRET (Table S2) ([7]; compounds 21-26 20 µM): 12.6 °C

C(=N\Nc1nnc2c(n1)[nH]c1ccccc12)/c1c2ccccc2cc2ccccc12
ΔTm ([1]; 50 µM compound): 1.54 °C

CCCNC(=O)Cn1nc(-c2ccc(CC)cc2)c2cnc3cc4c(cc3c21)OCCO4
ΔTm ([1]; 50 µM compound): 1.12 °C

Cc1ccc(Cn2cc(C(=O)c3ccc4c(c3)OCO4)c(=O)c3cc4c(cc32)OCO4)cc1 [Compound 15]
ΔTm/°C, stabilization of TTA45 by FRET (Table S2) ([7]; compounds 50 µM): 0.70 °C
